From publication PMC5190053, “Blocking the PAH2 domain of Sin3A inhibits tumorigenesis and confers retinoid sensitivity in triple negative breast cancer” (Oncotarget, 2016)

Target: T1, mSin3A PAH2 domain; SIN3A PAH2; Sin3A
T1 construct: PAH2 (paired amphipathic helix 2) domain only
Test: fluorescence anisotropy competition assay
Format: binding, Mus musculus
Conditions: conditions cited to earlier work

Ki: 23.6 µM
Structure (SMILES): O=C(O)c1cccc2c1NC(c1cccc(Cl)c1Cl)C1CC=CC21 (stereo not shown) [C16, 4-(2,3-Dichlorophenyl)-3a,4,5,9b-tetrahydro-3H-cyclopenta[c]quinoline-6-carboxylic acid]
